Test results as given in patent publication US11779572B1, “Methods of treating gastrointestinal stromal tumors” (Deciphera Pharmaceuticals, LLC, priority 2022, dated 2023).
Converted amounts (≈) assume the structure as drawn. Where two headings read alike, the source gives them in different places.

Key:
[1] = tested on: patients with advanced GIST; experiment: Example 1 study: treatment-emergent adverse events, safety; format: in vivo, human
Experimental: (§1) Patients were randomized 2:1 to either 150 mg of ripretinib or placebo once daily. The primary efficacy endpoint is progression-free survival (PFS) as determined by independent radiologic review using modified Response Evaluation Criteria in Solid Tumors (RECIST). Secondary endpoints as determined by independent radiologic review using modified RECIST include Objective Response Rate (ORR), Time to Tumor Progression (TTP) and Overall Survival (OS).
The safety of ripretinib and the impact of alopecia and palmar-plantar erythrodysesthesia (PPES) on patient-reported outcomes (PROs) of patients treated in the study described in Example 1 herein are described. […] When stratified by alopecia and PPES, patient reported assessments of function, overall health, and overall quality of life were maintained over time.

Solubility in buffers = format: physicochemical
GIST [2] = experiment: Phase 1 study, ripretinib 150 mg QD, second-line through fourth-line plus GIST (Example 3): efficacy; format: in vivo, human; conditions: for Best response (confirmed only): CR / Best response (confirmed only): PR / Best response (confirmed only): Progressive disease / Best response (confirmed only): Stable disease / ORR, n (95% CI) / PFS, Median: 150 mg QD; for ORR, n (95% CI): CR+PR; for PFS, Median: investigator assessment
Experimental: Efficacy and safety results from the escalation and expansion phases of a phase 1 study for patients with GIST treated at ripretinib 150 mg QD as the starting dose in 28-day cycles are presented. Local, investigator-assessed Response Evaluation Criteria in Solid Tumors (RECIST 1.1) response assessments were performed every 2 cycles, and patients in the expansion cohorts who progressed per RECIST 1.1 were allowed to dose escalate to 150 mg BID.
142 patients with GIST in the escalation and expansion phases were treated at 150 mg QD dose. Number of patients by line of therapy were as follows: 31 2nd line, 28 3rd line, and 83≥4th line patients. 135 patients (95.1%) had KIT-mutant GIST, and 7 patients (4.9%) had PDGFRA-mutant GIST.
For example, the confirmed-only complete response (CR), partial response (PR), stable disease, and progressive disease are presented in Table 4. The objective response rate data in Table 4 relates to the proportion of patients with CR+PR. The median PFS data in Table 4 refers to progression-free survival per investigator assessment, by line of therapy.
In Table 4: ^a64 subjects escalated to 150 mg BID among patients with GIST in the 150 mg QD dose group. CI, confidence interval; CR, complete response; NE, not estimable; ORR, objective response rate; PFS, progression-free survival; PR, partial response; SD, […]. Local (investigator) response assessment.

GIST [3] = experiment: Clinical study in second-line through fourth-line plus GIST, ≥100 mg daily (Example 2): efficacy; format: in vivo, human
Experimental: Results. Data from 178 GIST patients receiving ripretinib at doses of ≥100 mg daily are noted in Table 2. The table includes investigator-assessed objective response rate (ORR) by best response, disease control rate (DCR) and median progression free survival (mPFS), all of which were determined by Response Evaluation Criteria in Solid Tumors (RECIST) version 1.1.
In Table 2, (1) indicates overall number of patients (n=178) remains the same as prior data presented at ESMO 2018; based on additional data cleaning, one patient from each of 2nd line and 4th/≥4th line were reclassified as 3rd line patients; (2) refers to median treatment durations were: 2nd line=44 weeks, 3rd line=48 weeks, 4th line=46 weeks and ≥4th line=29 weeks; (3) refers to including 60 patients who elected for intra-patient dose escalation from 150 mg QD to 150 mg BID; and (4) refers to the number of patients including 60 patients from 4th line.

advanced GIST = experiment: Randomized, double-blind, placebo-controlled study of ripretinib in advanced GIST (Example 1): efficacy; format: in vivo, human
Experimental: as §1
Results. This study achieved its primary endpoint of improved PFS as determined by blinded independent central radiologic review using modified Response Evaluation Criteria in Solid Tumors (RECIST) version 1.1.
Patients whose disease progressed during the double blind phase of the study were escalated to 150 mg BID ripretinib, continued at the 150 mg QD dose, or discontinued in an open label-phase of the study.

[4] = patients crossed over from placebo to ripretinib

CCn1c(=O)c(-c2cc(NC(=O)Nc3ccccc3)c(F)cc2Br)cc2cnc(NC)cc21 [ripretinib]
alopecia in females ([1]; female, human, in vivo): 56.8%
Grade 3 or 4 TEAE abdominal pain ([1]; human, in vivo): 7%
Grade 3 or 4 TEAE hypertension ([1]; human, in vivo): 7%
TEAE alopecia (most common TEAE) ([1]; human, in vivo): 51.8%
patients reporting PPES ([1]; human, in vivo): 21.2%
patients with Grade 3 or 4 TEAEs ([1]; human, in vivo): 42 (49%)
patients with a TEAE leading to dose interruption ([1]; human, in vivo): 23.5%
patients with a TEAE leading to dose reduction ([1]; human, in vivo): 7.1%
TEAEs during the crossover period ([1]; in vivo): no safety concerns
patients with grade 3 PPES ([1]; in vivo): no patients
serious adverse events of alopecia or PPES ([1]; in vivo): no serious adverse events
alopecia in males ([1]; male, human, in vivo): 43.2%
patients with a TEAE leading to death ([1]; ripretinib arm): 5.9%
solubility (Solubility in buffers): pH-dependent solubility
solubility (Solubility in buffers; fassgf or other biorelevant, intestinal buffer (pH 6.5), read-out: solubility): 123 µg/mL (≈ 241 µM)
solubility (Solubility in buffers; simulated gastric fluid, gastric buffer (pH 2.0), read-out: solubility): 178 µg/mL (≈ 349 µM)
Best response (confirmed only): CR (GIST [2]; 2nd Line (n = 31)): 0 n (%)
Best response (confirmed only): PR (GIST [2]; 2nd Line (n = 31)): 6 (19.4) n (%)
Best response (confirmed only): Progressive disease (GIST [2]; 2nd Line (n = 31)): 4 (12.9) n (%)
Best response (confirmed only): Stable disease (GIST [2]; 2nd Line (n = 31)): 21 (67.7) n (%)
ORR, n (95% CI) (GIST [2]; 2nd Line (n = 31)): 19.4 (7.5, 37.5)
PFS, Median (GIST [2]; 2nd Line (n = 31)): 46.4 weeks
Best response (confirmed only): CR (GIST [2]; 3rd Line (n = 28)): 0 n (%)
Best response (confirmed only): PR (GIST [2]; 3rd Line (n = 28)): 4 (14.3) n (%)
Best response (confirmed only): Progressive disease (GIST [2]; 3rd Line (n = 28)): 6 (21.4) n (%)
Best response (confirmed only): Stable disease (GIST [2]; 3rd Line (n = 28)): 18 (64.3) n (%)
ORR, n (95% CI) (GIST [2]; 3rd Line (n = 28)): 14.3
PFS, Median (GIST [2]; 3rd Line (n = 28)): 36.3 weeks
Best response (confirmed only): CR (GIST [2]; ≥4th Line (n = 83)): 0 n (%)
Best response (confirmed only): PR (GIST [2]; ≥4th Line (n = 83)): 6 (7.2) n (%)
Best response (confirmed only): Progressive disease (GIST [2]; ≥4th Line (n = 83)): 22 (26.5) n (%)
Best response (confirmed only): Stable disease (GIST [2]; ≥4th Line (n = 83)): 49 (59.0) n (%)
ORR, n (95% CI) (GIST [2]; ≥4th Line (n = 83)): 7.2 (2.7, 15.1)
PFS, Median (GIST [2]; ≥4th Line (n = 83)): 23.9 weeks
PFS of second and third-line patients with Exons 9, 11, 13 or 17 KIT mutations (GIST [2]; FIG. 27): comparable PFS
clinical benefit after dose escalation to 150 mg BID (PFS1 vs PFS2) (GIST [2]; regardless of line of therapy, FIG. 25): additional clinical benefit
Disease Control Rate at 3 Months (GIST [3]; Fourth-Line (n = 60)): 73%
Median Progression Free Survival (mPFS) (GIST [3]; Fourth-Line (n = 60)): 30 weeks
Objective Response Rate by Best Response, includes unconfirmed (GIST [3]; Fourth-Line (n = 60)): 15%
Objective Response Rate, confirmed only (GIST [3]; Fourth-Line (n = 60)): 8%
Disease Control Rate at 3 Months (GIST [3]; Second-Line (n = 37)): 81%
Median Progression Free Survival (mPFS) (GIST [3]; Second-Line (n = 37)): 42 weeks
Objective Response Rate, confirmed only (GIST [3]; Second-Line (n = 37)): 22%
Objective Response Rate by Best Response, includes unconfirmed (GIST [3]; Second-Line (n = 37), ≥100 mg daily, RECIST 1.1, investigator): 30%
Disease Control Rate at 3 Months (GIST [3]; Third-Line (n = 31)): 80%
Median Progression Free Survival (mPFS) (GIST [3]; Third-Line (n = 31)): 40 weeks
Objective Response Rate by Best Response, includes unconfirmed (GIST [3]; Third-Line (n = 31)): 23%
Objective Response Rate, confirmed only (GIST [3]; Third-Line (n = 31)): 13%
Disease Control Rate at 3 Months (GIST [3]; ≥Fourth-Line (n = 110)): 66%
Median Progression Free Survival (mPFS) (GIST [3]; ≥Fourth-Line (n = 110)): 24 weeks
Objective Response Rate by Best Response, includes unconfirmed (GIST [3]; ≥Fourth-Line (n = 110)): 11%
Objective Response Rate, confirmed only (GIST [3]; ≥Fourth-Line (n = 110)): 7%
benefit over placebo (PFS, OS), primary Exon 11 and Exon 9 mutation (advanced GIST; 150 mg QD, FIG. 17): derive a benefit
OS rate at 12 months (advanced GIST; 150 mg once daily): 65.4%
PFS rate at 6 months (advanced GIST; 150 mg once daily): 51%
reduction of risk of disease progression or death compared to placebo (advanced GIST; 150 mg once daily): 85%
median PFS (advanced GIST; 150 mg once daily, initial ripretinib arm): 27.6 weeks
median PFS (advanced GIST; 150 mg once daily, BICR, modified RECIST 1.1, double-blind cut): 6.3 months
median PFS (advanced GIST; 150 mg once daily, BICR, modified RECIST 1.1, double-blind cut, listed as Ripretinib): 6.3 (4.6, 6.9) months
PFS compared to placebo in subgroups with Exon 9, 11, 13 or 17 KIT mutations (advanced GIST; FIG. 26A-D): PFS benefit in all assessed patient subgroups
Overall survival: number of deaths (%) (advanced GIST; double-blind cut): 26 (31)
PFS by BICR: deaths, number (%) (advanced GIST; double-blind cut): 5 (6)
PFS by BICR: number of events (%) (advanced GIST; double-blind cut): 51 (60)
PFS by BICR: progressive disease, number (%) (advanced GIST; double-blind cut): 46 (54)
objective/overall response rate by BICR (advanced GIST; modified RECIST 1.1, double-blind cut): 9.4%
objective/overall response rate by BICR (advanced GIST; modified RECIST 1.1, double-blind cut, listed as Ripretinib): 9%
Median OS (95% CI) (advanced GIST; open-label cut): Not Reached
Median PFS (95% CI) (advanced GIST; open-label cut): 6.3 (4.6, 8.1) months
Overall Response Rate by BICR (advanced GIST; open-label cut): 12%
Overall survival: number of deaths (%) (advanced GIST; open-label cut): 38 (45)
PFS by BICR: deaths, number (%) (advanced GIST; open-label cut): 6 (7)
PFS by BICR: number of events (%) (advanced GIST; open-label cut): 64 (75)
PFS by BICR: progressive disease, number (%) (advanced GIST; open-label cut): 58 (68)
median OS (advanced GIST; [4]): 11.6 months
median PFS (advanced GIST; [4]): 20.0 weeks
median OS (advanced GIST; patients initially randomized to ripretinib, double-blind cut): 15.1 months
median OS (advanced GIST; patients initially randomized to ripretinib, double-blind cut, listed as Ripretinib): 15 (12, 15) months
